The pIC50 is the negative decadic logarithm of the IC50, by convention in mol/L.

pIC50: −log10 of the molar value.

Here are results for 13 molecules from US20080176870A1, “Heterobicyclic metalloprotease inhibitors” (priority 2006, published 2008).

The target of the test is T1, catalytic domain of MMP-13 enzyme (Homo sapiens, UniProt P45452).
T1 construct: 10 μL of a 50 nM stock solution of catalytic domain of MMP-13 enzyme (produced by Alantos)
Put plainly: Assay for determining MMP-13 inhibition (fluorescent substrate). The test is classed as biochemical. As to conditions: Table 1, Summary of MMP-13 Activity for Compounds; read-out: MMP-13 Activity (IC50 MMP-13), Group. How it is done:
Assay for Determining MMP-13 Inhibition
The typical assay for MMP-13 activity is carried out in assay buffer comprised of 50 mM Tris, pH 7.5, 150 mM NaCl, 5 mM CaCl2 and 0.05% Brij-35. Different concentrations of tested compounds are prepared in assay buffer in 50 μL aliquots. 10 μL of a 50 nM stock solution of catalytic domain of MMP-13 enzyme (produced by Alantos) is added to the compound solution. The mixture of enzyme and compound in assay buffer is thoroughly mixed and incubated for 10 min at room temperature. Upon the completion of incubation, the assay is started by addition of 40 μL of a 12.5 μM stock solution of MMP-13 fluorescent substrate (Calbiochem, Cat. No. 444235). The time-dependent increase in fluorescence is measured at the 320 nm excitation and 390 nm emission by automatic plate multireader. The IC50 values are calculated from the initial reaction rates.
On to `O=C(NCC12CCC(C(=O)O)(CC1)CC2)Nc1cc(C(=O)NCc2ccc(F)cc2)nc2ccnn12` [Example 208], for which the pIC50 was above 6.70.
The same measure for `Cc1c(C(=O)O)ccc2c1CCC2N(CC(=O)O)Cc1cc(C(=O)NCc2ccc(F)c(F)c2)nc2ccnn12` (stereo not shown) [Example 32, 1-{carboxymethyl-[5-(3,4-difluoro-benzylcarbamoyl)-pyrazolo[1,5-a]pyrimidin-7-ylmethyl]-amino}-4-methyl-indan-5-carboxylic acid]: above 6.70; for `Cc1c(C(=O)O)ccc2c1CCC2NCc1cc(C(=O)NCc2ccc(F)c(F)c2)nc2ccnn12` (stereo not shown) [Example 29, 1-{[5-(3,4-difluoro-benzylcarbamoyl)-pyrazolo[1,5-a]pyrimidin-7-ylmethyl]-amino}-4-methyl-indan-5-carboxylic acid]: above 6.70; for `Cc1cc(CNC(=O)c2cc(C(=O)O)n3nccc3n2)ccc1F` [Example 193]: 4.70 to 6.70.
The same measure for `O=C1COc2ccc(CNC(=O)c3cc(-c4nn[nH]n4)n4ncc(F)c4n3)cc2N1` [Example 141]: above 6.70; for `O=C(NCc1ccc(F)cc1)c1cc(NC(=O)C23CCC(C(=O)O)(CC2)CC3)n2nccc2n1` [Example 209]: 4.70 to 6.70.
With `CC(C)(C)n1nnc(-c2cc(C(=O)NCc3ccc4c(c3)NC(=O)CO4)nc3ccnn23)n1` [Example 152] the figure was above 6.70; with `O=C1COc2ccc(CNC(=O)c3cc(-c4nnn(Cc5ccc(C(=O)O)cc5)n4)n4nccc4n3)cc2N1` [Example 160], above 6.70.
Turning to `Cc1c(C(=O)O)ccc2c1CC[C@@H]2NC(=O)c1cc(C(=O)NCc2ccc3c(c2)NC(=O)CO3)nc2ccccc12` [Example 211], the pIC50 was 4.70 to 6.70.
The same measure for `O=C1COc2ccc(CNC(=O)c3cc(C(F)(F)F)n4ncnc4n3)cc2N1` [Example 188]: 4.70 to 6.70; for `CC(C)(C)c1noc(-c2cc(C(=O)NCc3ccc4c(c3)NC(=O)CO4)nc3c(F)cnn23)n1` [Example 163]: above 6.70.
As for `N#Cc1cc(C(=O)NCc2ccc3c(c2)NC(=O)CO3)nc2ncnn12` [Example 190], the pIC50 is 4.70 to 6.70.
Regarding `Nc1c(N2CCc3ccc(CNC(=O)c4cc(C(=O)O)n5ncnc5n4)cc3C2)c(=O)c1=O` [Example 195], the pIC50 was 4.70 to 6.70.
